In the experiment the test system is BDF1 mice, Friend leukemia sc, tumor weight T/C. As to the kind of experiment: NCI In Vivo Anticancer Drug Screen. Data for tumor model Friend Virus Leukemia (Solid) (subcutaneous) in B6D2F1 (BDF1) mice. The note with it: endpoint: mean tumor weight, higher = larger tumour. The protocol:
The antitumor activity of compounds was measured in mice bearing transplantable tumors. Survival or tumor size were measured and the results are expressed as the measurement made in the treated group (T) divided by the measurement made in the vehicle treated control group (C). The tumor model used in this assay is Friend Virus Leukemia (Solid) (subcutaneous) in B6D2F1 (BDF1) mice

The mark [1] stands for this setting: dose: 0.25 mg/kg/injection, schedule: Q01DX011 (ip), vehicle: carboxymethylcellulose (CMC).
The mark [2] stands for this setting: dose: 0.5 mg/kg/injection, schedule: Q01DX011 (ip), vehicle: carboxymethylcellulose (CMC).
Setting [3] is: dose: 3.0 mg/kg/injection, schedule: Q01DX011 (ip), vehicle: carboxymethylcellulose (CMC).
[4] abbreviates: dose: 75.0 mg/kg/injection, schedule: Q01DX011 (ip), vehicle: carboxymethylcellulose (CMC).
Setting [5] is: dose: 2.5 mg/kg/injection, schedule: Q01DX011 (ip), vehicle: carboxymethylcellulose (CMC).

Values joined by “and” are separate entries in the source; they are usually repeats but may differ in a detail not shown here. Equal values may be shown once. Records with an inconclusive call do not appear.

In the case of `O=c1[nH]cc(N(CCCl)CCCl)c(=O)[nH]1`, the T/C runs as follows: (dose: 0.21 mg/kg/injection, schedule: Q01DX011 (ip), vehicle: carboxymethylcellulose (CMC)) 87 % of control; (dose: 0.42 mg/kg/injection, schedule: Q01DX011 (ip), vehicle: carboxymethylcellulose (CMC)) 99 % of control; (dose: 0.42 mg/kg/injection, schedule: Q01DX011 (ip), vehicle: saline) 53 % of control; (dose: 0.85 mg/kg/injection, schedule: Q01DX011 (ip), vehicle: carboxymethylcellulose (CMC)) 36 % of control; (dose: 0.85 mg/kg/injection, schedule: Q01DX011 (ip), vehicle: saline) 47 % of control; (dose: 1.3 mg/kg/injection, schedule: Q01DX011 (ip), vehicle: saline) 20 % of control. The T/C (dose: 1.7 mg/kg/injection, schedule: Q01DX011 (ip), vehicle: saline) was 13 % of control.

Take `CCCCCC(=O)O[C@]1(C(C)=O)CC[C@H]2[C@@H]3CCC4=CC(=O)CC[C@]4(C)[C@H]3CC[C@@]21C`: the T/C was 173 % of control (dose: 125.0 mg/kg/injection, schedule: Q01DX011 (sc), vehicle: steriod suspending solution); 166 % of control (dose: 250.0 mg/kg/injection, schedule: Q01DX011 (sc), vehicle: steriod suspending solution); 156 % of control (dose: 375.0 mg/kg/injection, schedule: Q01DX011 (sc), vehicle: steriod suspending solution); 124 % of control (dose: 750.0 mg/kg/injection, schedule: Q01DX011 (sc), vehicle: steriod suspending solution).

Consider `Fc1ccc(CSc2ncnc3c2ncn3C2CCCCO2)cc1` (configuration not stated), for which the T/C is, setting by setting: (dose: 90.0 mg/kg/injection, schedule: Q01DX011 (ip), vehicle: carboxymethylcellulose (CMC)) 10 % of control; (dose: 180.0 mg/kg/injection, schedule: Q01DX011 (ip), vehicle: carboxymethylcellulose (CMC)) 1 % of control.

`CO[C@H]1CC[C@@]2(C)[C@@H](CC[C@H]3[C@@H]4C[C@H](O)C[C@@]4(C)CC[C@@H]32)C1`: the T/C was 108 % of control (dose: 10.0 mg/kg/injection, schedule: Q01DX011 (sc), vehicle: steriod suspending solution) and 104 % of control (dose: 15.0 mg/kg/injection, schedule: Q01DX011 (sc), vehicle: steriod suspending solution).

With `CCCCCCCCCCCCCS`, the T/C runs as follows: (dose: 50.0 mg/kg/injection, schedule: Q01DX011 (ip), vehicle: carboxymethylcellulose (CMC)) 109 % of control; (dose: 100.0 mg/kg/injection, schedule: Q01DX011 (ip), vehicle: carboxymethylcellulose (CMC)) 105 % of control; (dose: 200.0 mg/kg/injection, schedule: Q01DX011 (ip), vehicle: carboxymethylcellulose (CMC)) 101 % of control.

For `Nc1nc(=S)c2[nH]cnc2[nH]1`, the T/C runs as follows: under setting [1], 53 % of control and 47 % of control; (dose: 0.4 mg/kg/injection, schedule: Q01DX011 (ip), vehicle: carboxymethylcellulose (CMC)) 33 % of control and 36 % of control; (dose: 0.66 mg/kg/injection, schedule: Q01DX011 (ip), vehicle: carboxymethylcellulose (CMC)) 23 % of control and 26 % of control.

`Cn1cnc([N+](=O)[O-])c1Sc1nc(N)nc2c1ncn2C1OC(CO)C(O)C1O` (configuration not stated): the T/C by setting is: under setting [1], 73 % of control; under setting [2], 61 % of control; (dose: 1.0 mg/kg/injection, schedule: Q01DX011 (ip), vehicle: carboxymethylcellulose (CMC)) 31 % of control and 32 % of control; under setting [3], 10 % of control and 24 % of control; (dose: 7.0 mg/kg/injection, schedule: Q01DX011 (ip), vehicle: carboxymethylcellulose (CMC)) 5 % of control.

As for `CCCCNc1ncnc2c1cnn2C`, the T/C (dose: 4.0 mg/kg/injection, schedule: Q01DX011 (ip), vehicle: saline) is 150 % of control; the T/C (dose: 16.0 mg/kg/injection, schedule: Q01DX011 (ip), vehicle: saline) is 117 % of control; the T/C (dose: 31.0 mg/kg/injection, schedule: Q01DX011 (ip), vehicle: saline) was 84 % of control.

`N#CCSc1ncnc2nc[nH]c12`: the T/C reads like this: (dose: 15.5 mg/kg/injection, schedule: Q01DX011 (ip), vehicle: carboxymethylcellulose (CMC)) 91 % of control; (dose: 31.0 mg/kg/injection, schedule: Q01DX011 (ip), vehicle: carboxymethylcellulose (CMC)) 32 % of control; (dose: 62.5 mg/kg/injection, schedule: Q01DX011 (ip), vehicle: carboxymethylcellulose (CMC)) 18 % of control.

In the case of `CCCCCCCCCCCCCCCCC(C(=O)O)C(O)(CC(=O)O)C(=O)O` (configuration not stated), the T/C runs as follows: (dose: 19.0 mg/kg/injection, schedule: Q01DX011 (ip), vehicle: carboxymethylcellulose (CMC)) 107 % of control; (dose: 37.5 mg/kg/injection, schedule: Q01DX011 (ip), vehicle: carboxymethylcellulose (CMC)) 100 % of control; under setting [4], 35 % of control.

Regarding `O=C1C(NC(=O)C2CCCCC2)=C(N2CC2)C(=O)C(NC(=O)C2CCCCC2)=C1N1CC1`, the T/C is 106 % of control (dose: 22.0 mg/kg/injection, schedule: Q01DX011 (ip), vehicle: carboxymethylcellulose (CMC)); 82 % of control (dose: 43.0 mg/kg/injection, schedule: Q01DX011 (ip), vehicle: carboxymethylcellulose (CMC)); 62 % of control (dose: 87.0 mg/kg/injection, schedule: Q01DX011 (ip), vehicle: carboxymethylcellulose (CMC)); 61 % of control (dose: 350.0 mg/kg/injection, schedule: Q01DX011 (ip), vehicle: carboxymethylcellulose (CMC)).

With `Cc1c2ccc3ccccc3c2c[n+]2ccccc12`, the T/C by setting is: under setting [3], 97 % of control; (dose: 6.0 mg/kg/injection, schedule: Q01DX011 (ip), vehicle: carboxymethylcellulose (CMC)) 105 % of control; (dose: 24.0 mg/kg/injection, schedule: Q01DX011 (ip), vehicle: carboxymethylcellulose (CMC)) 61 % of control and 37 % of control.

As for `O=C(O)CCc1c[nH]c2ccc(N(CCCl)CCCl)cc12`, the T/C was 107 % of control (dose: 1.2 mg/kg/injection, schedule: Q01DX011 (ip), vehicle: carboxymethylcellulose (CMC)); 92 % of control under setting [5]; 114 % of control (dose: 5.0 mg/kg/injection, schedule: Q01DX011 (ip), vehicle: carboxymethylcellulose (CMC)).

As to `[I][Hg][CH2]C1OCCOC1[CH2][Hg][I]` (configuration not stated), the T/C (dose: 18.0 mg/kg/injection, schedule: Q01DX011 (ip), vehicle: carboxymethylcellulose (CMC)) is 66 % of control; the T/C (dose: 37.0 mg/kg/injection, schedule: Q01DX011 (ip), vehicle: carboxymethylcellulose (CMC)) was 76 % of control; the T/C under setting [4] was 46 % of control.

Consider `NC(CO)C(=O)O` (configuration not stated), for which the T/C by setting is: (dose: 250.0 mg/kg/injection, schedule: Q01DX011 (ip), vehicle: carboxymethylcellulose (CMC)) 108 % of control; (dose: 500.0 mg/kg/injection, schedule: Q01DX011 (ip), vehicle: carboxymethylcellulose (CMC)) 112 % of control.

Consider `CC(/C=N\N=C(N)N)=N/N=C(N)N`, for which the T/C is 111 % of control (dose: 5.7 mg/kg/injection, schedule: Q01DX011 (ip), vehicle: carboxymethylcellulose (CMC)); 70 % of control (dose: 11.5 mg/kg/injection, schedule: Q01DX011 (ip), vehicle: carboxymethylcellulose (CMC)); 96 % of control (dose: 23.0 mg/kg/injection, schedule: Q01DX011 (ip), vehicle: carboxymethylcellulose (CMC)).

Consider `O=C(Nc1ccc(C2=NCCN2)cc1)c1ccc(C(=O)Nc2ccc(C3=NCCN3)cc2)c(Cl)c1`, for which the T/C by setting is: (dose: 0.31 mg/kg/injection, schedule: Q01DX011 (ip), vehicle: carboxymethylcellulose (CMC)) 66 % of control; under setting [2], 93 % of control; (dose: 0.63 mg/kg/injection, schedule: Q01DX011 (ip), vehicle: carboxymethylcellulose (CMC)) 50 % of control; (dose: 1.25 mg/kg/injection, schedule: Q01DX011 (ip), vehicle: carboxymethylcellulose (CMC)) 40 % of control and 46 % of control; under setting [5], 39 % of control; (dose: 10.0 mg/kg/injection, schedule: Q01DX011 (ip), vehicle: carboxymethylcellulose (CMC)) 93 % of control. Moreover, the T/C was 21 % of control [middle of 4 runs] (dose: 15.0 mg/kg/injection, schedule: Q01DX011 (ip), vehicle: carboxymethylcellulose (CMC)) and 6 % of control (dose: 20.0 mg/kg/injection, schedule: Q01DX011 (ip), vehicle: carboxymethylcellulose (CMC)).

With `CCOC(=O)NC`, the T/C is 114 % of control (dose: 75.0 mg/kg/injection, schedule: Q01DX011 (ip), vehicle: saline); 98 % of control (dose: 150.0 mg/kg/injection, schedule: Q01DX011 (ip), vehicle: saline); 75 % of control (dose: 300.0 mg/kg/injection, schedule: Q01DX011 (ip), vehicle: saline); 48 % of control (dose: 500.0 mg/kg/injection, schedule: Q01DX011 (ip), vehicle: saline); 53 % of control (dose: 600.0 mg/kg/injection, schedule: Q01DX011 (ip), vehicle: saline); 37 % of control (dose: 750.0 mg/kg/injection, schedule: Q01DX011 (ip), vehicle: saline).

The values above are taken from PubChem BioAssay AID228 (DTP/NCI, 2004).
